Laboratory results from US10214519B2, “Phosphatidylinositol 3-kinase inhibitors” (Gilead Sciences, Inc., priority 2016, dated 2019).

Target: PI3Kβ (Homo sapiens (Human), UniProt P42338)
Assay: PI3K isoform TR-FRET enzymatic assay (PI3Kβ)
Format: biochemical
Settings: 2× Km ATP, 30 minutes at 25° C.
Experimental: The compounds of formula (I) were characterized for their enzymatic activity against the PI3K isoforms. The activities were measured using a time-resolved fluorescence resonance energy transfer (TR-FRET) assay. TR-FRET monitored the formation of 3,4,5-inositol triphosphate molecule that competed with fluorescently labeled PIP3 for binding to the GRP-1 pleckstrin homology domain protein.
Class I PI3K isoforms were expressed and purified as heterodimeric recombinant proteins. All assay reagents and buffers for the TR-FRET assay were purchased from Millipore. […] The compounds were added to the assay solution and incubated for 30 minutes at 25° C. The reactions were terminated with a final concentration of 10 mM EDTA, 10 nM labeled-PIP3, and 35 nM Europium labeled GRP-1 detector protein before reading TR-FRET on an Envision plate reader (Ex: 340 nm; Em: 615/665 nm; 100 μs delay and 500 μs read window).
The results were normalized based on positive (1 μM wortmanin) and negative (DMSO) controls, and the IC50 values for PI3K α, β, δ, and γ were calculated from the fit of the dose-response curves to a four-parameter equation.

Sequence of PI3Kβ (P42338 whole entry, canonical isoform): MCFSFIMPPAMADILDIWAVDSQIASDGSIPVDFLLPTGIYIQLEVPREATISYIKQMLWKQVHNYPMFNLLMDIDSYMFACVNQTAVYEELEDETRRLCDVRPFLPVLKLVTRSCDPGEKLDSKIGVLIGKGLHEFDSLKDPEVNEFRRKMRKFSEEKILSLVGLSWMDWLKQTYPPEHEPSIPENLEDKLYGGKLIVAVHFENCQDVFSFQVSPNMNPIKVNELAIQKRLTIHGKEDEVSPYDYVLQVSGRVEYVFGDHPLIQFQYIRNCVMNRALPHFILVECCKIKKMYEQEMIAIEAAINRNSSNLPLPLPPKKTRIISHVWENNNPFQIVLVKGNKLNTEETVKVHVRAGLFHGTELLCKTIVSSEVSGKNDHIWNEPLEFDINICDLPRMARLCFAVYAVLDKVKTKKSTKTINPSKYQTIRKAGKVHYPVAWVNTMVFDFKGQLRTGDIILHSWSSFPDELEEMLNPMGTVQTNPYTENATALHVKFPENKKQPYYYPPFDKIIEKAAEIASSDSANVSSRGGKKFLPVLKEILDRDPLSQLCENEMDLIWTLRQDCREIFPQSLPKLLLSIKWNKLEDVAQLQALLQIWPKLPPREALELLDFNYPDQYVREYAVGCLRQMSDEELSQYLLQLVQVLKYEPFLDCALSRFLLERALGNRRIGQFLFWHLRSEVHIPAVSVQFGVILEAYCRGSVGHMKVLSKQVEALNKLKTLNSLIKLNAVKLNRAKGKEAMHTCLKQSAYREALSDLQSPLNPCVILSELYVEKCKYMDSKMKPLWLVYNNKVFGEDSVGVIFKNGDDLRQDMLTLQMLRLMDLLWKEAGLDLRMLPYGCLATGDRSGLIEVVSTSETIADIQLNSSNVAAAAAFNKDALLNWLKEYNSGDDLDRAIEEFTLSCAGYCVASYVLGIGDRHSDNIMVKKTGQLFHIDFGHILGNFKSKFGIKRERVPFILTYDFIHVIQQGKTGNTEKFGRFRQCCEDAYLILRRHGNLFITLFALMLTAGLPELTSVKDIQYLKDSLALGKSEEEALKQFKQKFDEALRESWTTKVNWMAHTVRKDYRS
Sequence of PI3Kβ (P27986 whole entry partner, canonical isoform): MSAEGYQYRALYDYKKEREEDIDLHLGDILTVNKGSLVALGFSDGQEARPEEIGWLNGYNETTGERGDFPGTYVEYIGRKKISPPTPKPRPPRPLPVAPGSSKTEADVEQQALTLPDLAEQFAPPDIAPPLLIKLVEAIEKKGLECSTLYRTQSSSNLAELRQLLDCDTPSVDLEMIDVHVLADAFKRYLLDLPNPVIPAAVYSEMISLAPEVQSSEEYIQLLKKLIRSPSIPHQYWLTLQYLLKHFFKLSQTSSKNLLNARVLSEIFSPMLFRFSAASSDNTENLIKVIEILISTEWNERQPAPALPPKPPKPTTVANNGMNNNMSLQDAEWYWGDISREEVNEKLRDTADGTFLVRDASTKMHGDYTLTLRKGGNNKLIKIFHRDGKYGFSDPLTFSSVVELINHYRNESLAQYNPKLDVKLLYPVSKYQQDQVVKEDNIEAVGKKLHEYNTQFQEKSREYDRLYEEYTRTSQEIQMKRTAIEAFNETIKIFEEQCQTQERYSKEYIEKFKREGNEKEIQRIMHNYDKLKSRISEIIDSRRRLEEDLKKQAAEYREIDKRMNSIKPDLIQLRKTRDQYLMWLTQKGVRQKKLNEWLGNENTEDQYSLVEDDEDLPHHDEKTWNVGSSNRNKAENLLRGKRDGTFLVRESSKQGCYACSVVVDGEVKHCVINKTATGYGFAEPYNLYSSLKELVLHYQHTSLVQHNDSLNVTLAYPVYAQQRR

Row | IC50 [µM] | SMILES
1 | 0.022 | CCc1nc2c(-c3nnc(C)[nH]3)cc(N3CCOCC3)cc2n1-c1c(Cl)cnc2c(Cl)cccc12 [Example 26, 4-[3-(3,8-dichloroquinolin-4-yl)-2-ethyl-7-(5-methyl-4H-1,2,4-triazol-3-yl)benzimidazol-5-yl]morpholine]
2 | 0.043 | COC(C)c1nc2c(-c3nnc[nH]3)cc(N3CCOCC3)cc2n1-c1ccnc2c(Cl)cccc12 (stereo not drawn) [Example 12, 4-(1-(8-chloroquinolin-4-yl)-2-(1-methoxyethyl)-4-(4H-1,2,4-triazol-3-yl)-1H-benzo[d]imidazol-6-yl)morpholine]
3 | 0.014 | Cc1nc2c(-c3nnc[nH]3)cc(N3CCOCC3)cc2n1-c1ccnc2c(Cl)ccc(F)c12 [Example 87, 4-[3-(8-chloro-5-fluoroquinolin-4-yl)-2-methyl-7-(4H-1,2,4-triazol-3-yl)benzimidazol-5-yl]morpholine]
4 | 0.029 | CCc1c(C)nc2ccccc2c1-n1cnc2c(-c3nc(C)n[nH]3)cc(N3CCOCC3)cc21 [Example 75, 4-[3-(3-ethyl-2-methylquinolin-4-yl)-7-(3-methyl-1H-1,2,4-triazol-5-yl)benzimidazol-5-yl]morpholine]
5 | 0.009 | CCCc1nc2c(-c3ncco3)cc(N3CCOCC3)cc2n1-c1ccnc2c(F)cccc12 [Example 223, 4-[3-(8-fluoroquinolin4-yl)-7-(1,3-oxazol-2-yl)-2-propylbenzimidazol-5-yl]morpholine]
6 | 0.013 | Cc1cccc2c(-n3c(C)nc4c(-c5nnc[nH]5)cc(N5CCOCC5)cc43)ccnc12 [Example 109, 4-[2-methyl-3-(8-methylquinolin-4-yl)-7-(4H-1,2,4-triazol-3-yl)benzimidazol-5-yl]morpholine]
7 | 0.017 | Cc1cc(-n2c(C)nc3c(-c4nnc[nH]4)cc(N4CCOCC4)cc32)c2ccccc2n1 [Example 69, 4-[2-methyl-3-(2-methylquinolin-4-yl)-7-(4H-1,2,4-triazol-3-yl)benzimidazol-5-yl]morpholine]
8 | 0.026 | Cc1nc2c(-c3nnc[nH]3)cc(N3CCOCC3)cc2n1-c1ccnc2c(C(F)(F)F)cccc12 [Example 108, 4-[2-methyl-7-(4H-1,2,4-triazol-3-yl)-3-[8-(trifluoromethyl)quinolin-4-yl]benzimidazol-5-yl]morpholine]
9 | 0.008 | CC(C)Cc1nc2c(-c3ncco3)cc(N3CCOCC3)cc2n1-c1ccnc2c(F)ccc(F)c12 [Example 219, 4-[3-(5,8-difluoroquinolin-4-yl)-2-(2-methylpropyl)-7-(1,3-oxazol-2-yl)benzimidazol-5-yl]morpholine]
10 | 0.036 | Cc1nc2c(-c3cscn3)cc(N3CCOCC3)cc2n1-c1ccnc2c(Cl)cccc12 [Example 270, 4-[3-(8-chloroquinolin-4-yl)-2-methyl-7-(1,3-thiazol-4-yl)benzimidazol-5-yl]morpholine]
11 | 0.007 | Cc1nc2c(-c3nnc[nH]3)cc(N3CCOCC3)cc2n1-c1ccnc2c(Cl)cccc12 [Example 101, 4-[3-(8-chloroquinolin-4-yl)-2-methyl-7-(4H-1,2,4-triazol-3-yl)benzimidazol-5-yl]morpholine]
12 | 0.015 | Fc1ccc2c(-n3cnc4c(-c5nnc[nH]5)cc(N5CCOCC5)cc43)ccnc2c1 [Example 53, 4-(l-(7-fluoroquinolin-4-yl)-4-(4H-1,2,4-triazol-3-yl)-1H-benzo[d]imidazol-6-yl)morpholine]
13 | 0.051 | Cc1nc2c(-c3nnc[nH]3)cc(N3CCOCC3)cc2n1-c1c(Cl)cnc2ccccc12 [Example 128, 4-[3-(3-chloroquinolin-4-yl)-2-methyl-7-(4H-1,2,4-triazol-3-yl)benzimidazol-5-yl]morpholine]
14 | 0.14 | Cc1nc2c(-c3nnc(C(C)C)[nH]3)cc(N3CCOCC3)cc2n1-c1ccnc2c(Cl)cccc12 [Example 138, 4-[3-(8-chloroquinolin-4-yl)-2-methyl-7-(5-propan-2-yl-4H-1,2,4-triazol-3-yl)benzimidazol-5-yl]morpholine]
15 | 10 | CCc1nc2c(-c3cnc(Cl)[nH]3)cc(N3CCOCC3)cc2n1-c1ccnc2c(F)ccc(F)c12 (atropisomer, axis not shown) [Compound 346, 4-[7-(2-chloro-1H-imidazol-5-yl)-3-(5,8-difluoroquinolin-4-yl)-2-ethylbenzimidazol-5-yl]morpholine]
16 | 0.61 | Clc1cccc2c(-n3c(C4CCCO4)nc4c(-c5cccnc5)cc(N5CCOCC5)cc43)ccnc12 (stereo not drawn) [Example 199]

Row | IC50 [µM] | SMILES
17 | 0.024 | Cc1nnc(-c2cc(N3CCOCC3)cc3c2nc(CC(C)C)n3-c2ccnc3c(Cl)cccc23)[nH]1 [Example 2, 4-(1-(8-chloroquinolin-4-yl)-2-isobutyl-4-(5-methyl-4H-1,2,4-triazol-3-yl)-1H-benzo[d]imidazol-6-yl)morpholine]
18 | 2.1 | Cc1nc2c(-c3ccc(Cl)s3)cc(N3CCOCC3)cc2n1-c1ccnc2c(Cl)cccc12 [Example 267, 4-[3-(8-chloroquinolin-4-yl)-7-(5-chlorothiophen-2-yl)-2-methylbenzimidazol-5-yl]morpholine]
19 | 0.013 | CCc1nc2c(-c3nnc(C)[nH]3)cc(N3CCOCC3)cc2n1-c1c(Cl)cnc2c(Cl)cccc12 (atropisomer, axis not shown) [Compound 348, 4-[3-(3,8-dichloroquinolin-4-yl)-2-ethyl-7-(5-methyl-4H-1,2,4-triazol-3-yl)benzimidazol-5-yl]morpholine]
20 | 0.007 | Cc1nc2c(-c3cnn[nH]3)cc(N3CCOCC3)cc2n1-c1ccnc2c(Cl)cccc12 [Example 329, 4-(1-(8-chloroquinolin-4-yl)-2-methyl-4-(1H-1,2,3-triazol-5-yl)-1H-benzo[d]imidazol-6-yl)morpholine]
21 | 0.008 | Clc1cccc2c(-n3c(C4CCC4)nc4c(-c5nnc[nH]5)cc(N5CCOCC5)cc43)ccnc12 [Example 30, 4-(1-(8-chloroquinolin-4-yl)-2-cyclobutyl-4-(4H-1,2,4-triazol-3-yl)-1H-benzo[d]imidazol-6-yl)morpholine]
22 | 0.013 | CCCc1nc2c(-c3cnc[nH]3)cc(N3CCOCC3)cc2n1-c1ccnc2c(Cl)cccc12 [Example 207, 4-[3-(8-chloroquinolin-4-yl)-7-(1H-imidazol-5-yl)-2-propylbenzimidazol-5-yl]morpholine]
23 | 1.2 | Cc1nc2c(-c3nnc(Cl)[nH]3)cc(N3CCOCC3)cc2n1-c1ccnc2c(Cl)cccc12 (atropisomer, axis not shown) [Compound 359, 4-[3-(8-chloroquinolin-4-yl)-7-(5-chloro-4H-1,2,4-triazol-3-yl)-2-methylbenzimidazol-5-yl]morpholine]
24 | 0.072 | Cc1c(C2CC2)nc2ccccc2c1-n1c(C)nc2c(-c3nnc[nH]3)cc(N3CCOCC3)cc21 [Example 56, 4-[3-(2-cyclopropyl-3-methylquinolin-4-yl)-2-methyl-7-(4H-1,2,4-triazol-3-yl)benzimidazol-5-yl]morpholine]
25 | 0.005 | Cc1nc2c(-c3nnc[nH]3)cc(N3CCOCC3)cc2n1-c1ccnc2c(F)ccc(Cl)c12 (atropisomer, axis not shown) [Compound 344, 4-[3-(5-chloro-8-fluoroquinolin-4-yl)-2-methyl-7-(4H-1,2,4-triazol-3-yl)benzimidazol-5-yl]morpholine]
26 | 0.417 | Cc1nc2c(-c3ccccn3)cc(N3CCOCC3)cc2n1-c1ccnc2c(Cl)cccc12 [Example 323, 4-[3-(8-chloroquinolin-4-yl)-2-methyl-7-pyridin-2-ylbenzimidazol-5-yl]morpholine]
27 | 0.031 | c1ccc(-c2nc3c(-c4nnc[nH]4)cc(N4CCOCC4)cc3n2-c2ccnc3ccccc23)nc1 [Example 6, 4-(2-(pyridin-2-yl)-1-(quinolin-4-yl)-4-(4H-1,2,4-triazol-3-yl)-1H-benzo[d]imidazol-6-yl)morpholine]
28 | 0.11 | Fc1ccc(F)c2c(-n3c(C4COC4)nc4c(-c5nnc[nH]5)cc(N5CCOCC5)cc43)ccnc12 [Example 123, 4-[3-(5,8-difluoroquinolin-4-yl)-2-(oxetan-3-yl)-7-(4H-1,2,4-triazol-3-yl)benzimidazol-5-yl]morpholine]
29 | 0.017 | Fc1ccc2c(-n3c(C4CC4)nc4c(-c5cnc(Cl)[nH]5)cc(N5CCOCC5)cc43)ccnc2c1Cl [Example 296, 4-[3-(8-chloro-7-fluoroquinolin-4-yl)-7-(2-chloro-1H-imidazol-5-yl)-2-cyclopropylbenzimidazol-5-yl]morpholine]
30 | 0.017 | CCCc1nc2c(-c3nc(C)cs3)cc(N3CCOCC3)cc2n1-c1ccnc2c(F)ccc(F)c12 [Example 235, 4-[3-(5,8-difluoroquinolin-4-yl)-7-(4-methyl-1,3-thiazol-2-yl)-2-propylbenzimidazol-5-yl]morpholine]
31 | 0.72 | Cc1nc2c(-c3nnc(N)s3)cc(N3CCOCC3)cc2n1-c1ccnc2cc(F)ccc12 [Example 165, 5-(1-(7-fluoroquinolin-4-yl)-2-methyl-6-morpholino-1H-benzo[d]imidazol-4-yl)-1,3,4-thiadiazol-2-amine]
32 | 0.008 | CCCc1nc2c(-c3nnc[nH]3)cc(N3CCOCC3)cc2n1-c1ccnc2c(F)cccc12 (atropisomer, axis not shown) [Compound 354, 4-[3-(8-fluoroquinolin-4-yl)-2-propyl-7-(4H-1,2,4-triazol-3-yl)benzimidazol-5-yl]morpholine]

Row | SMILES | IC50 [µM]
33 | Cc1nnc(-c2cc(N3CCOCC3)cc3c2nc(C)n3-c2ccnc3c(F)ccc(F)c23)[nH]1 (atropisomer, axis not shown) [Compound 351, (R)-4-(1-(5,8-difluoroquinolin-4-yl)-2-methyl-4-(5-methyl-4H-1,2,4-triazol-3-yl)-1H-benzo[d]imidazol-6-yl)morpholine] | 0.46
